{"source": "paper PMC4177084", "about": "(Journal of Thyroid Research, 2014)", "key": {"RAF1": {"target": "T1, RAF1 (Homo sapiens, UniProt P04049)", "T1 construct": "purchased Carna Biosciences, Inc. (Kobe, Japan)", "assay": "Cell free kinase inhibition assay", "assay_type": "biochemical"}, "CHK1": {"target": "T2, CHK1 (Homo sapiens, UniProt O14757)", "T2 construct": "purchased Carna Biosciences, Inc. (Kobe, Japan)", "assay": "Cell free kinase inhibition assay", "assay_type": "biochemical"}, "CSK": {"target": "T3, CSK (Homo sapiens, UniProt P41240)", "T3 construct": "purchased Carna Biosciences, Inc. (Kobe, Japan)", "assay": "Cell free kinase inhibition assay", "assay_type": "biochemical"}, "HGK": {"target": "T4, HGK (Homo sapiens, UniProt O95819)", "T4 construct": "purchased Carna Biosciences, Inc. (Kobe, Japan)", "assay": "Cell free kinase inhibition assay", "assay_type": "biochemical"}, "MET": {"target": "T5, MET (Homo sapiens, UniProt P08581)", "T5 construct": "purchased Carna Biosciences, Inc. (Kobe, Japan)", "T5 sequence (P08581 25-1390)": "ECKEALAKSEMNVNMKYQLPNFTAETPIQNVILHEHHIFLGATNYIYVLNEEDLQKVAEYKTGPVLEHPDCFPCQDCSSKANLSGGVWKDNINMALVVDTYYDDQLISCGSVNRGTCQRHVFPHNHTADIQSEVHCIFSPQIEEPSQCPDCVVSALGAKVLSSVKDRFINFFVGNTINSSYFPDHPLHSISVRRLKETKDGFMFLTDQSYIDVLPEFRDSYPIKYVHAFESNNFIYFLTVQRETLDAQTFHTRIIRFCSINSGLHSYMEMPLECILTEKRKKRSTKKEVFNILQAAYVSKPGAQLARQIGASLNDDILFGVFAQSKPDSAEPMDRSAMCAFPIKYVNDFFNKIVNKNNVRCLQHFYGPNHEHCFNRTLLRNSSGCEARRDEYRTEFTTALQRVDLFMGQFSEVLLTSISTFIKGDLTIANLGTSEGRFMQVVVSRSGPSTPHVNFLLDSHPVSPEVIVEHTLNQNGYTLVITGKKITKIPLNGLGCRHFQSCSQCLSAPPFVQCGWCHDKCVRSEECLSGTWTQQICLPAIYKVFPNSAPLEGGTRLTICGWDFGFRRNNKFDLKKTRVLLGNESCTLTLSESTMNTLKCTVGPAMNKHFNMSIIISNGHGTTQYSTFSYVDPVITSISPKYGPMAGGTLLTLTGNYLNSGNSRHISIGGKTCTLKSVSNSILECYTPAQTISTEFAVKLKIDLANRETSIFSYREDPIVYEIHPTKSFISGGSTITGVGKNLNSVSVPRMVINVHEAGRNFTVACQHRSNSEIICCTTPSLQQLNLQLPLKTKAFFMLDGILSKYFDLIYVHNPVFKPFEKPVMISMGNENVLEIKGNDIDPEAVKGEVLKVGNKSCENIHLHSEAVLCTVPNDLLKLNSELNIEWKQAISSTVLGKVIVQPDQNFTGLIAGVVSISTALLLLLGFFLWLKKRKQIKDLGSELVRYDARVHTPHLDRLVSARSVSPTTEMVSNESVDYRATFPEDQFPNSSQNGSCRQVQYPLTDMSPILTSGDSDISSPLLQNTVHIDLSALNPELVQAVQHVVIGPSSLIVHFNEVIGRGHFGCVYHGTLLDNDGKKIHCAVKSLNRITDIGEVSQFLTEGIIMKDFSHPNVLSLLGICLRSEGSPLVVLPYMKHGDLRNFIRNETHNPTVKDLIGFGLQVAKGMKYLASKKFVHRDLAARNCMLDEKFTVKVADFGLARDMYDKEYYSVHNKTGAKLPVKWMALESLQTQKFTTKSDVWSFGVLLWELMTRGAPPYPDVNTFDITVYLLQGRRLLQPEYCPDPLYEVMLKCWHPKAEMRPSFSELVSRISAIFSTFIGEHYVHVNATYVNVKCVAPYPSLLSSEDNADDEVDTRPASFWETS", "assay": "Cell free kinase inhibition assay", "assay_type": "biochemical"}, "TCO-1 cells": {"system": "TCO-1 cells", "assay": "Antiproliferation assay (WST-8)", "assay_type": "cell-based", "settings": "Homo sapiens, 72 h; TCO-1 (ATC), antiproliferative, 3 days"}, "FLT3": {"target": "T6, FLT3 (Homo sapiens, UniProt P36888)", "T6 construct": "purchased Carna Biosciences, Inc. (Kobe, Japan)", "T6 sequence (P36888 27-993)": "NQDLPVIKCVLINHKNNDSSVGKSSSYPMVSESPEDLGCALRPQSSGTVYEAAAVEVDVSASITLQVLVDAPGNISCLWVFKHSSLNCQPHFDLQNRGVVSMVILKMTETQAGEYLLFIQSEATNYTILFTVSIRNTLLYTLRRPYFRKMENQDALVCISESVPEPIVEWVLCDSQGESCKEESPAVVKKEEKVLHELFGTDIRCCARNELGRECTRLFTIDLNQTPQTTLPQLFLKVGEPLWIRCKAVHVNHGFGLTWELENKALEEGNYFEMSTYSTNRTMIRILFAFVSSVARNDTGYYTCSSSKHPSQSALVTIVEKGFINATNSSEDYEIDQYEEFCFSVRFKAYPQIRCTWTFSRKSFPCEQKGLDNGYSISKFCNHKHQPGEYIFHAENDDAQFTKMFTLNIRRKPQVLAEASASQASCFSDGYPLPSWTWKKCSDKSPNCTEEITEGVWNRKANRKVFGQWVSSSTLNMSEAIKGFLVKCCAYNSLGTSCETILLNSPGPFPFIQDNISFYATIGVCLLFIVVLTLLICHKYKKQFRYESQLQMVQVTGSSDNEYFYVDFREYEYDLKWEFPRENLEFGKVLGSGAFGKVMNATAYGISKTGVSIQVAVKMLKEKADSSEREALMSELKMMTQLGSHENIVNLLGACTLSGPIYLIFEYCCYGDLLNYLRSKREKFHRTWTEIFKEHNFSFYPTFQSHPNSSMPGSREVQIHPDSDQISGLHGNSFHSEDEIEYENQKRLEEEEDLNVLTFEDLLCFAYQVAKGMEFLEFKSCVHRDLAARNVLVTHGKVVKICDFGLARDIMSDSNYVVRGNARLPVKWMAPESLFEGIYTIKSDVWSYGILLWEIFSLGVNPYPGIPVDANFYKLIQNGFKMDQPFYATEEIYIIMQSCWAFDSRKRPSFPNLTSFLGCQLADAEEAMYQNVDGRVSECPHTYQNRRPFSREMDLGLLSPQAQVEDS", "assay": "Cell free kinase inhibition assay", "assay_type": "biochemical"}, "PDGFRα(V561D)": {"target": "T7, PDGFRα(V561D) (Homo sapiens, UniProt P16234, V561D)", "T7 construct": "purchased Carna Biosciences, Inc. (Kobe, Japan)", "T7 sequence (P16234 24-1089 V561D)": "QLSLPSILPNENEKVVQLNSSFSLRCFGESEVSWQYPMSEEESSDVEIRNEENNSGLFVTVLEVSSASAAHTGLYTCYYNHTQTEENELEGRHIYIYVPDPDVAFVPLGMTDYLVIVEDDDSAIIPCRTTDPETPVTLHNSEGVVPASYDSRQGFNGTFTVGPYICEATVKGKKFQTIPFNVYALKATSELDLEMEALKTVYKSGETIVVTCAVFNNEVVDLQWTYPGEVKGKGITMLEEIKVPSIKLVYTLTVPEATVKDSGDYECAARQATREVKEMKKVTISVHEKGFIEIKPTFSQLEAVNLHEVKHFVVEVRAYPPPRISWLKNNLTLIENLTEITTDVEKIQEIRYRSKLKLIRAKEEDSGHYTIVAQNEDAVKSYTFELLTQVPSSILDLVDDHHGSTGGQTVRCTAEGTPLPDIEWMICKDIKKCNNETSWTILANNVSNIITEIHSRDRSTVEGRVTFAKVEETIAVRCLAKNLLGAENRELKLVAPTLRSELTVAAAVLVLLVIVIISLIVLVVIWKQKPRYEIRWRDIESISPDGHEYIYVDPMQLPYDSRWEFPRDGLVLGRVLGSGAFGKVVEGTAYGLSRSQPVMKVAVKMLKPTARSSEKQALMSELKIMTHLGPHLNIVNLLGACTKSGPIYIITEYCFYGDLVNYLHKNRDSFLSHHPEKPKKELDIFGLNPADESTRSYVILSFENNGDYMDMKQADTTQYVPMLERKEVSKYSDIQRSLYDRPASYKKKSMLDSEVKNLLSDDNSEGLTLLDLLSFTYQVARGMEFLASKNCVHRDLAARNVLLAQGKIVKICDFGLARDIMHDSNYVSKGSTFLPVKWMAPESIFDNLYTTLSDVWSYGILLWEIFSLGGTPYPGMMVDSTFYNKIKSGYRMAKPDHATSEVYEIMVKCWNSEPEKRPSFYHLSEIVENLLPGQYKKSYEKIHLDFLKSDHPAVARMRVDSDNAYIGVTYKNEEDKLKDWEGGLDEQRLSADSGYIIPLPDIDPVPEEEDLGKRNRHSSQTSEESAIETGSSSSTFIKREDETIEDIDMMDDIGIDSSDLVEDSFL", "assay": "Cell free kinase inhibition assay", "assay_type": "biochemical"}, "[1]": {"system": "human thyroid cancer cell lines", "assay": "Antiproliferation assay, panel of 11 cell lines", "assay_type": "cell-based", "settings": "9 out of the 11 cell lines, in vitro antiproliferative", "experimental": "The human DTC cell lines K1, FTC-133, FTC-236, FTC-238, and RO82-W-1 and the human thyroid follicular epithelial cell line Nthy-ori 3-1 were obtained from DS Pharma Biomedical Co., Ltd. (Osaka, Japan). The human MTC cell line TT was obtained from the American Type Culture Collection (Manassas, VA). The human ATC cell lines 8305C, 8505C, HTC/C3, KHM-5M, and TCO-1 were obtained from the Japanese Collection of Research Bioresources Cell Bank (Osaka, Japan). […]\nCells (1,000–3,000/well) were seeded and cultured in 96-well culture plates. […] Cell numbers were determined by using WST-8 (Dojindo, Kumamoto, Japan); 10 μL of WST-8 was added to each well, and absorbance was measured at a wavelength of 450 nm and compared with a reference measurement at 660 or 665 nm by using an MTP-500 microplate reader (Corona Electric, Ibaraki, Japan) or an EnVision Multilabel Reader (Perkin Elmer, Turku, Finland). […]"}, "WEE1": {"target": "T8, WEE1 (Homo sapiens, UniProt P30291)", "T8 construct": "purchased Carna Biosciences, Inc. (Kobe, Japan)", "T8 sequence (P30291 whole entry)": "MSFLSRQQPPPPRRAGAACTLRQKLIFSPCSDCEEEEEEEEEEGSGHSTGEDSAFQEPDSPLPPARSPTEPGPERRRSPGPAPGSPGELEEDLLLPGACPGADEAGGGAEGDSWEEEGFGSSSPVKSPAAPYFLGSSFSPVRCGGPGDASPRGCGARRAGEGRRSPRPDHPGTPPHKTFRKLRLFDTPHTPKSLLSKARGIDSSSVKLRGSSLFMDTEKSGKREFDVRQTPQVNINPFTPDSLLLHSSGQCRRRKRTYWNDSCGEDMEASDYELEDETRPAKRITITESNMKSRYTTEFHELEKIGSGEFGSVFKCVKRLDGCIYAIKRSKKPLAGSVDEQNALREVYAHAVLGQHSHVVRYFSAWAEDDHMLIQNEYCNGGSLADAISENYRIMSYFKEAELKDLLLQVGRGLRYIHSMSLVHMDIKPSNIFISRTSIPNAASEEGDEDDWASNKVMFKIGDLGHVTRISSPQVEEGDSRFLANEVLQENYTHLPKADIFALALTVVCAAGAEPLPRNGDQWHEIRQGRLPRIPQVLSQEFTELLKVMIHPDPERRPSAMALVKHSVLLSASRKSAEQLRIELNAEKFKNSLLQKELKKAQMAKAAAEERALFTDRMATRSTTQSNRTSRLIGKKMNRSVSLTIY", "assay": "Cell free kinase inhibition assay", "assay_type": "biochemical"}, "[2]": {"system": "tumor microvessels in 5 ATC xenografts", "assay": "Microvessel density (CD31 immunohistochemistry) in xenografts", "assay_type": "in vivo, nude mice", "settings": "all 5 ATC xenograft models, 10 and 100 mg/kg", "from_the_text": "(§1) Tumor tissues were resected from nude mice, embedded in Optimal Cutting Temperature (OCT) compound (Sakura Finetek Japan, Tokyo, Japan), frozen in dry ice-acetone, and then sectioned (8 μm), or they were embedded in paraffin, fixed overnight in immunohistochemical (IHC) Zinc Fixative (BD Biosciences), and then sectioned (6 μm). Tumor microvessels were stained by the indirect immunoperoxidase method with a rat anti-mouse CD31 monoclonal antibody (clone MEC13.3, BD Biosciences) and then visualized by using Vectastain ABC (Dako, Tokyo, Japan). Pericyte was stained by the indirect alkaline phosphatase method with an anti-α smooth muscle actin (SMA) antibody conjugated alkaline phosphatase (A 5691, Sigma-Aldrich) and visualized by using Simple Stain AP(R) (Nichirei Biosciences Inc, Tokyo, Japan). Adjacent sections were stained with Hematoxylin-Eosin. Microvessel density (MVD) was determined as described previously. Each section was scanned by using a microscope (VANOX AHBS3, Olympus, Tokyo, Japan) at low magnification to identify 5 areas with the highest densities of CD31-stained microvessels. The microvessels in the selected areas were then counted at 400x magnification. MVD was recorded as the number of microvessels per mm^2. In the DTC xenografts, the percentage of pericyte-covered microvessels was analyzed. Pericyte-covered vessels were identified by examining the colocalization of CD31- (endothelial cells-) positive vessels and αSMA- (pericytes-) positive cells. The number of pericyte-covered vessels was counted in the selected area and then compared with the total number of CD31-stained microvessels in the same area. The percentage of pericyte-covered microvessels was calculated as the number of pericyte-covered microvessels/total number of microvessels × 100 in the selected area. The MVD in the ATC xenograft models was determined by using the digital pathology system ScanScope XT (Aperio, Vista, CA). Briefly, CD31-stained whole tissue slices were scanned on the ScanScope system (Aperio) to generate high-resolution digital slides. By using a digital slide viewer, Aperio ImageScope (v10.0.36.1805, Aperio), 5 regions of interest (ROIs: each 500 μm square) were manually selected as areas with the highest densities of CD31-stained microvessels in each tumor slice. The number of microvessels in each ROI was measured by using Microvessel Analysis Algorithm v1.0 (Aperio), which automatically detects and quantifies microvessels on slides stained with endothelial markers. MVD was expressed as the number of microvessels per mm^2. […] The percentage of microvessel inhibition (%MVI) was calculated from the microvessel density (MVD) according to the following formula: [(1 − MVD of tumor in each compound-treated animal/Mean MVD of tumors in the vehicle control-treated group) × 100]."}, "[3]": {"system": "tumor microvessels in 5 DTC xenografts", "assay": "Microvessel density (CD31 immunohistochemistry) in xenografts", "assay_type": "in vivo, nude mice", "from_the_text": "as §1"}, "[4]": {"system": "tumor microvessels in TT xenografts", "assay": "Microvessel density (CD31 immunohistochemistry) in xenografts", "assay_type": "in vivo, nude mice", "settings": "10 or 100 mg/kg", "from_the_text": "as §1"}, "PRKX": {"target": "T9, PRKX (Homo sapiens, UniProt P51817)", "T9 construct": "purchased Carna Biosciences, Inc. (Kobe, Japan)", "T9 sequence (P51817 whole entry)": "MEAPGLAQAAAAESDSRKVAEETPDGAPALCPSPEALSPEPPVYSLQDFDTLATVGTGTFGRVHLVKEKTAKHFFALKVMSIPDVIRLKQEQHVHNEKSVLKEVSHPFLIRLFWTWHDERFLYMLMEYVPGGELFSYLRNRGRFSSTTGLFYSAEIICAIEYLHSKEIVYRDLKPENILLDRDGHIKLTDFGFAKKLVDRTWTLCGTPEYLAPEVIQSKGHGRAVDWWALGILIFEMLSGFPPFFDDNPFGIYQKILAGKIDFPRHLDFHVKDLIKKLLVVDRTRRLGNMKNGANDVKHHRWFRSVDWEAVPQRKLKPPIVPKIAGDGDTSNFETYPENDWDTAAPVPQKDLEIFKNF", "assay": "Cell free kinase inhibition assay", "assay_type": "biochemical"}}, "note": "pIC50: −log10 of the molar value."}
{"smiles": "COc1cc2nccc(Oc3ccc(NC(=O)NC4CC4)c(Cl)c3)c2cc1C(N)=O", "note": "[Lenvatinib, Lenvatinib mesilate]", "values": [{"measurement": "pIC50", "setting": "RAF1", "value": 5.80}, {"measurement": "pIC50", "setting": "CHK1", "value": "< 5.00"}, {"measurement": "pIC50", "setting": "CSK", "value": 5.59}, {"measurement": "pIC50", "setting": "HGK", "value": 6.40}, {"measurement": "pIC50", "setting": "MET", "value": 6.28}, {"measurement": "pIC50", "setting": "TCO-1 cells", "value": 4.55}, {"measurement": "pIC50", "setting": "FLT3", "value": 5.39}, {"measurement": "pIC50", "setting": "PDGFRα(V561D)", "value": 7.60}, {"measurement": "pIC50", "setting": "[1]", "value": "< 5.00"}, {"measurement": "pIC50", "setting": "WEE1", "value": "< 5.00"}, {"measurement": "MVD", "setting": "[2]", "value": "decreased significantly"}, {"measurement": "MVD", "setting": "[3]; 10 mg/kg", "value": "significantly decreased in 4 of the 5 DTC xenografts"}, {"measurement": "MVD", "setting": "[3]; 100 mg/kg, all of the 5", "value": "significantly decreased"}, {"measurement": "MVD", "setting": "[4]", "value": "did not decrease the MVDs"}, {"measurement": "pIC50", "setting": "PRKX", "value": "< 5.00"}]}
